Assays:
[1] = target: Voltage-gated inwardly rectifying potassium channel KCNH2 (Homo sapiens, UniProt Q12809)
[2] = Permeability from basolateral to apical side of the Caco-2 cell membrane; type: ADME, cell-based; conditions: human
[3] = Permeability from apical to basolateral side of the Caco-2 cell membrane; type: ADME, cell-based; conditions: human
hERG (KCNH2) = hERG (KCNH2) (Homo sapiens, UniProt Q12809); assay: in vitro; conditions: HEK293 cells that express hERG
Sequence of hERG (KCNH2) (Q12809 whole entry): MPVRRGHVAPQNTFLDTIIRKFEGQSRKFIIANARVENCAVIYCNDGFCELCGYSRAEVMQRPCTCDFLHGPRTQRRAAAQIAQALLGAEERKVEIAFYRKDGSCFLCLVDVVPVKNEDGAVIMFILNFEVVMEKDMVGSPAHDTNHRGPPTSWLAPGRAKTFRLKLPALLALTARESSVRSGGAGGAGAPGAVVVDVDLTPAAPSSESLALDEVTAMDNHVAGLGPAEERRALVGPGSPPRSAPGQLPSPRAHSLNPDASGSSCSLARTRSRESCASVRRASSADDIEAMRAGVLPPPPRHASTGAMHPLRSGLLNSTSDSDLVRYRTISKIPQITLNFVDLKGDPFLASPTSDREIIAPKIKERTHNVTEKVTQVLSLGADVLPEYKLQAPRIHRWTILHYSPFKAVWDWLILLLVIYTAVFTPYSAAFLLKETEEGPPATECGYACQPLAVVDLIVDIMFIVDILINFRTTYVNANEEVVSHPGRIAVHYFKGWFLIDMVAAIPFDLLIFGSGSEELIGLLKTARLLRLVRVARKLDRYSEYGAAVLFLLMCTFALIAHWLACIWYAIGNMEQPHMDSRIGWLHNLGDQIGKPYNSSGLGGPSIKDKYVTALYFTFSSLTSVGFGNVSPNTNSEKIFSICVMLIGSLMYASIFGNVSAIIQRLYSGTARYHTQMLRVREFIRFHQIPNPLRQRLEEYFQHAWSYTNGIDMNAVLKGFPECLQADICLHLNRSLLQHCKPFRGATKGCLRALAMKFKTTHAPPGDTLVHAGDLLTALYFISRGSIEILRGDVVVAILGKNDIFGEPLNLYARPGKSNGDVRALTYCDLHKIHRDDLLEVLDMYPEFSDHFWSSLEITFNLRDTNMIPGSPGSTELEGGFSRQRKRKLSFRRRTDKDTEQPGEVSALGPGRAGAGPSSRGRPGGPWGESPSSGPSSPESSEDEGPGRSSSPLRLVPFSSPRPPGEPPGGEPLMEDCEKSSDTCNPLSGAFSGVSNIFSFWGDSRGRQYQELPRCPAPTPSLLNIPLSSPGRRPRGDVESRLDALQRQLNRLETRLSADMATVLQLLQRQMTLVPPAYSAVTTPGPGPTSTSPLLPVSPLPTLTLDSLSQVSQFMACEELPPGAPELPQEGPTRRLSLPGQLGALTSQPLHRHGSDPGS

Sequence of Voltage-gated inwardly rectifying potassium channel KCNH2 (Q12809 whole entry): as above

| Structure (SMILES) | Ki [1] [nM] | further results |
| --- | --- | --- |
| CC1(C)C2=C3C=C4C5=[N+](CCC4OC3CCN2c2ccc(CCC(=O)NCCCCCCN(CCOc3ccc(NS(C)(=O)=O)cc3)CCc3ccc(NS(C)(=O)=O)cc3)cc21)c1ccc(S(=O)(=O)[O-])cc1C5(C)C (configuration not stated) | 19 | – |
| CS(=O)(=O)Nc1ccc(CCN(CCOc2ccc(NS(C)(=O)=O)cc2)c2ccc([N+](=O)[O-])c3nonc23)cc1 | – | Papp B→A [2]: 18 ×10⁻⁶ cm/s; Papp A→B [3]: 3.7 ×10⁻⁶ cm/s |
| CC1(C)C2=C3C=C4C5=[N+](CCC4OC3CCN2c2ccc(CC(=O)NCCCN(CCOc3ccc(NS(C)(=O)=O)cc3)CCc3ccc(NS(C)(=O)=O)cc3)cc21)c1ccc(S(=O)(=O)[O-])cc1C5(C)C (configuration not stated) | 160 | – |
| CC1(C)C2=C3C=C4C5=[N+](CCC4OC3CCN2c2ccc(CCCCCC(=O)NCCCCCCN(CCOc3ccc(NS(C)(=O)=O)cc3)CCc3ccc(NS(C)(=O)=O)cc3)cc21)c1ccc(S(=O)(=O)[O-])cc1C5(C)C (configuration not stated) | 10 | – |
| CN(C)c1ccc2c(c1)Oc1cc(N(C)C)ccc1C21OC(=O)c2cc(C(=O)N(CCOc3ccc(NS(C)(=O)=O)cc3)CCc3ccc(NS(C)(=O)=O)cc3)ccc21 | > 1000 | – |
| CCNC(=O)Cc1ccc2c(c1)C(C)(C)C1C3C=C4C5=[N+](CCC4OC3CCN21)c1ccc(S(=O)(=O)[O-])cc1C5(C)C (configuration not stated) | > 1000 | – |
| CCN1CCCc2cc3c(cc21)OC1=CC2=[N+](CCCC(=O)N(CCOc4ccc(NS(C)(=O)=O)cc4)CCc4ccc(NS(C)(=O)=O)cc4)CCCC2=CC1N3 (configuration not stated) | 3.6 | – |
| CS(=O)(=O)Nc1ccc(CCN(CCOc2ccc(NS(C)(=O)=O)cc2)C(=O)c2ccc3c(c2)C(=O)OC32c3ccc(O)cc3Oc3cc(O)ccc32)cc1 | 980 | – |
| CC1(C)C2=C3C=C4C5=[N+](CCC4OC3CCN2c2ccc(CC(=O)NCCCCN(CCOc3ccc(NS(C)(=O)=O)cc3)CCc3ccc(NS(C)(=O)=O)cc3)cc21)c1ccc(S(=O)(=O)[O-])cc1C5(C)C (configuration not stated) | 18 | – |
| CN(CCOc1ccc(NS(C)(=O)=O)cc1)CCc1ccc(NS(C)(=O)=O)cc1 [DOFETILIDE] | – | Papp B→A [2]: 14.3 ×10⁻⁶ cm/s; Papp A→B [3]: 15.7 ×10⁻⁶ cm/s; inhibition at 0.025 µM (hERG (KCNH2)): 80% |
| CC1(C)C2=C3C=C4C5=[N+](CCC4OC3CCN2c2ccc(CC(=O)NCCCCCN(CCOc3ccc(NS(C)(=O)=O)cc3)CCc3ccc(NS(C)(=O)=O)cc3)cc21)c1ccc(S(=O)(=O)[O-])cc1C5(C)C (configuration not stated) | 13 | – |
| CC1(C)C2=C3C=C4C5=[N+](CCC4OC3CCN2c2ccc(CC(=O)NCCN(CCOc3ccc(NS(C)(=O)=O)cc3)CCc3ccc(NS(C)(=O)=O)cc3)cc21)c1ccc(S(=O)(=O)[O-])cc1C5(C)C (configuration not stated) | 7300 | – |
| CN(C)c1ccc2c(c1)Oc1cc(N(C)C)ccc1C21OC(=O)c2cc(C(=O)NCCCCCCN(CCOc3ccc(NS(C)(=O)=O)cc3)CCc3ccc(NS(C)(=O)=O)cc3)ccc21 | 89 | – |
| CS(=O)(=O)Nc1ccc(CCN(CCCCCCNC(=O)c2ccc3c(c2)C(=O)OC32c3ccc(O)cc3Oc3cc(O)ccc32)CCOc2ccc(NS(C)(=O)=O)cc2)cc1 | 15 | – |

Source: ChEMBL document CHEMBL1145378 (J Med Chem, 2007)
